In one test the target is T1, KRas^G12R (Homo sapiens, UniProt P01116, G12R).
T1 construct: […]; biotin (biotinylated); purchased Accelegan Inc
Description: KRas binding assay (TR-FRET displacement of Cy5 labelled tracer).

The target of the next test is T2, KRas^G12D (Homo sapiens, UniProt P01116, G12D).
T2 construct: […]; biotin (biotinylated); purchased Accelegan Inc
The description is as above.

In the next test the target is T3, KRas^G12V (Homo sapiens, UniProt P01116, G12V).
T3 construct: […]; biotin (biotinylated); purchased Accelegan Inc
T3 sequence (P01116 1-169 isoform P01116-2 G12V): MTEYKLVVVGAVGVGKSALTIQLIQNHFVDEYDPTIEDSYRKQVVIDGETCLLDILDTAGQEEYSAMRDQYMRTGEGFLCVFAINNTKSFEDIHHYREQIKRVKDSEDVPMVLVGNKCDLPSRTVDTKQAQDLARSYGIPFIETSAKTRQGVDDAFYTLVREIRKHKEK
The description is as above.

A further test has as its system ASPC1 cells, pERK. Description: Inhibition of KRas phosphorylation of ERK (Cisbio HTRF Advanced pERK assay). Format: cell-based. The conditions noted are these: Homo sapiens, ASPC1, 3 h, AsPC-1 cells, read-out: Inhibition (HTRF IC50 nM) of KRas-mediated Phosphorylation of ERK, AsPC-1. The procedure: (§1) Inhibition of KRas Phosphorylation of ERK (HTRF) by Exemplary Compounds of Formula (I)
(§2) Cisbio HTRF Advanced pERK Assay Catalog #64AERPEH
(§3) • Day 1: Seed 6,000 cells/well −25 μl/well in 384-well white solid bottom plate; RPM1_10% FBS. […] To harvest cells from flask using 0.05% Trypsin/EDTA solution. Add 10 mL of media to stop trypsinizing. Pipette the cells into a conical bottom 50 mL centrifuge tube and centrifuge 5 min×1000 rpm. • 2. Re-suspend the cell pellet in media, take a cell count, and then adjust the cell density using fresh media. • 3. Seed 6,000 cells into cell culture plate with […]. The • 4. Incubate cell plate overnight in a 37° C., 5% CO2 incubator. Compound Titrations • 1. Use Tecan to complete the compound addition. Compounds start from 10 uM top, 3-fold dilution, and 10 doses. The final DMSO concentration is 0.8%. Dispensed 0.2 uM Trametinib as Min control. • 2. Incubate cell plate for 3 hrs in the incubator. Detection with Cisbio pERK HTRF Kit • 1. Dilute 1 volume of 4× lysis buffer with 3 volumes of deionized water. Then, add 100× the blocking reagent. Keep lysis buffer on the ice. • 2. At the end of the compound treatment, flick-off the media. • 3. Add 35 μL of lysis buffer per well using a Multidrop Combi. Then place on a plate agitator shaking at 300 rpm at 4° C. for 40 mins. • 4. Make up the HTRF antibody buffer. For each assay plate, mix 50 μL of d2-conjugate antibody with 950 μL of detection buffer. Similarly, mix 50 μL of Cryptate antibody with 950 μL of detection buffer. Then mix the two diluted antibodies together. • 5. Dispense 3.4 μL the antibody buffer to wells of an empty assay plate. Seal the plate and centrifuge plate 30 sec×1000 rpm. • 6. At the end of the 4° C. lysis, centrifuge the lysate plates 3 mins×1500 rpm. • 7. Use the Bravo to transfer 13.6 μL of lysate from cell culture plate to assay plate. Then incubate assay plate for 2 hrs at room temperature. • 8. At the end of incubation, read plate on the Envision after centrifuging plate 30 sec×1000 rpm.
In general terms: TR-FRET usually uses a lanthanide donor and a delayed reading to cut background.

The test system of a further test is H727 cells, pERK. Described as above. Format: cell-based. The conditions noted are these: Homo sapiens, NCI-H727, 3 h, read-out: Inhibition (HTRF IC50 nM) of KRas-mediated Phosphorylation of ERK, H727. The procedure:
as §1, §2, §3

In the next test the test system is PSN1 cells, pERK. The description is as above. The format is cell-based. The conditions noted are these: Homo sapiens, PSN1, 3 h, read-out: Inhibition (HTRF IC50 nM) of KRas-mediated Phosphorylation of ERK, PSN1. The procedure:
as §1, §2, §3

The next test deals with MKN1 cells, pERK. The test is described as above. Format: cell-based. As to conditions: Homo sapiens, MKN-1, 3 h, read-out: Inhibition (HTRF IC50 nM) of KRas-mediated Phosphorylation of ERK, MKN1. The procedure:
as §1, §2, §3

T2 sequence (P01116 1-169 isoform P01116-2 G12D): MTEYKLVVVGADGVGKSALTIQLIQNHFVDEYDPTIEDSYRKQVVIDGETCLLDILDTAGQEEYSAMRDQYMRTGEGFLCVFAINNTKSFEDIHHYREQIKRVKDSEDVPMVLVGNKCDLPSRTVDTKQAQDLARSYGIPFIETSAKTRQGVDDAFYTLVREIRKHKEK
T1 sequence (P01116 1-169 isoform P01116-2 G12R): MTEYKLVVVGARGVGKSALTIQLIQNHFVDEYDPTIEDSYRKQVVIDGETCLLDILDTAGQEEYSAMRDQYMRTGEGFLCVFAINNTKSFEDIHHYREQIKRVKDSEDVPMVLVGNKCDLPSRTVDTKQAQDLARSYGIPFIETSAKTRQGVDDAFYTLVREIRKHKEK
Description for KRas^G12D: (§4) The ability of a compound to bind to KRas was measured using a TR-FRET displacement assay. […] After a 60-minute incubation at room temperature, the reaction was measured using a BMG LABTECH CLARIO star Plus via TR-FRET. […] The POC values were fit to a 4-parameter IC50 equation and the IC50 value reported.
Description for KRas^G12R: as §4
Description for KRas^G12V: as §4

For orientation: IC50 means the point on the concentration scale where inhibition reaches its midpoint. As for `Oc1cc(N2CCc3c(nc(OC[C@@]45CCCN4C[C@H](F)C5)nc3N3CCCC4(CC(O)C4)C3)C2)c2c(Cl)c(F)ccc2c1` (stereo partly drawn) [Example 71, 6-(7-(8-chloro-7-fluoro-3-hydroxynaphthalen-1-yl)-2-(((2R,7aS)-2-fluorohexahydro-1H-pyrrolizin-7a-yl)methoxy)-5,6,7,8-tetrahydropyrido[3,4-d]pyrimidin-4-yl)-6-azaspiro[3.5]nonan-2-ol], the IC50 was not above 2 nM on KRas^G12R; 4 nM on KRas^G12D; not above 2 nM at KRas^G12V; 1170 nM in the test with ASPC1 cells, pERK; 848 nM in the test on H727 cells, pERK; 6040 nM in the test on PSN1 cells, pERK. Also, the IC50 in the test with MKN1 cells, pERK is 211 nM.
As to `OCC1COCCN(c2nc(OC[C@@]34CCCN3C[C@H](F)C4)nc3c2CCN(c2cc(O)cc4ccc(F)c(Cl)c24)C3)C1` (stereo partly drawn) [Example 73, 5-chloro-6-fluoro-4-(2-(((2R,7aS)-2-fluorohexahydro-1H-pyrrolizin-7a-yl)methoxy)-4-(6-(hydroxymethyl)-1,4-oxazepan-4-yl)-5,6-dihydropyrido[3,4-d]pyrimidin-7(8H)-yl)naphthalen-2-ol], the half-inhibitory concentration (IC50) at KRas^G12R is 3 nM; at KRas^G12D, 5 nM; at KRas^G12V, 3 nM; with ASPC1 cells, pERK it was 661 nM; in the test with H727 cells, pERK, 871 nM; with PSN1 cells, pERK, 6380 nM. The IC50 in the test on MKN1 cells, pERK was found to be 85 nM.
Take `CCc1c(F)ccc2cc(O)cc(N3CCc4c(nc(OC[C@@]56CCCN5C[C@H](F)C6)nc4N4CC5CC(O)C5C4)C3)c12` (stereo partly drawn) [Example 177, 3-(7-(8-ethyl-7-fluoro-3-hydroxynaphthalen-1-yl)-2-(((2R,7aS)-2-fluorohexahydro-1H-pyrrolizin-7a-yl)methoxy)-5,6,7,8-tetrahydropyrido[3,4-d]pyrimidin-4-yl)-3-azabicyclo[3.2.0]heptan-6-ol]: the IC50 at KRas^G12R is 15 nM; at KRas^G12D, 19 nM; on KRas^G12V, 9 nM; in the test on ASPC1 cells, pERK it was 1310 nM; in the test on H727 cells, pERK, 1380 nM; with PSN1 cells, pERK, not below 10000 nM. In addition, the IC50 in the test on MKN1 cells, pERK came to 479 nM.
`CCc1c(F)ccc2cc(O)cc(N3CCc4c(nc(OC[C@@]56CCCN5C[C@H](F)C6)nc4N4CCCn5nncc5C4)C3)c12` [Example 178, 4-(4-(7,8-dihydro-4H-[1,2,3]triazolo[1,5-a][1,4]diazepin-5(6H)-yl)-2-(((2R,7aS)-2-fluorotetrahydro-1H-pyrrolizin-7a(5H)-yl)methoxy)-5,8-dihydropyrido[3,4-d]pyrimidin-7(6H)-yl)-5-ethyl-6-fluoronaphthalen-2-ol]: the IC50 on KRas^G12R was not above 2 nM; at KRas^G12D it was not above 2 nM; at KRas^G12V it was not above 2 nM; in the test on ASPC1 cells, pERK it was 17 nM; in the test with H727 cells, pERK, 68 nM; in the test on PSN1 cells, pERK, 7620 nM. Further, in the test on MKN1 cells, pERK, the IC50 was determined as 20 nM.
On to `CCc1c(F)ccc2cc(O)cc(N3CCc4c(nc(OC[C@@]56CCCN5C[C@H](F)C6)nc4N4CC5CC(O)CC(C5)C4)C3)c12` (stereo partly drawn) [Example 179, 3-(7-(8-ethyl-7-fluoro-3-hydroxynaphthalen-1-yl)-2-(((2R,7aS)-2-fluorohexahydro-1H-pyrrolizin-7a-yl)methoxy)-5,6,7,8-tetrahydropyrido[3,4-d]pyrimidin-4-yl)-3-azabicyclo[3.3.1]nonan-7-ol], for which the IC50 on KRas^G12R is 80 nM; at KRas^G12D, 207 nM; at KRas^G12V, 101 nM; with ASPC1 cells, pERK, 5170 nM; with H727 cells, pERK it was 4790 nM; with PSN1 cells, pERK, not below 10000 nM. Also, the IC50 in the test with MKN1 cells, pERK amounted to 1210 nM.
As for `CCc1c(F)ccc2cc(O)cc(N3CCc4c(nc(OC[C@@]56CCCN5C[C@H](F)C6)nc4N4CCCc5nc(N)sc5C4)C3)c12` [Example 181, 4-(4-(2-amino-7,8-dihydro-4H-thiazolo[5,4-c]azepin-5(6H)-yl)-2-(((2R,7aS)-2-fluorohexahydro-1H-pyrrolizin-7a-yl)methoxy)-5,6-dihydropyrido[3,4-d]pyrimidin-7(8H)-yl)-5-ethyl-6-fluoronaphthalen-2-ol], the concentration for half-maximal inhibition (IC50) was not above 2 nM at KRas^G12R; not above 2 nM at KRas^G12D; not above 2 nM at KRas^G12V; 228 nM in the test with ASPC1 cells, pERK; 191 nM with H727 cells, pERK; not below 10000 nM with PSN1 cells, pERK. In the test with MKN1 cells, pERK, the IC50 came out at 90 nM.
As for `CCc1c(F)ccc2cc(O)cc(N3CCc4c(nc(OC[C@@]56CCCN5C[C@H](F)C6)nc4N4C[C@H]5CC[C@H](O)[C@H]5C4)C3)c12` [Example 182, (3aR,4S,6aS)-2-(7-(8-ethyl-7-fluoro-3-hydroxynaphthalen-1-yl)-2-(((2R,7aS)-2-fluorohexahydro-1H-pyrrolizin-7a-yl)methoxy)-5,6,7,8-tetrahydropyrido[3,4-d]pyrimidin-4-yl)octahydrocyclopenta[c]pyrrol-4-ol], the IC50 on KRas^G12R was 118 nM; on KRas^G12D, 209 nM; on KRas^G12V, 75 nM; in the test on ASPC1 cells, pERK, 3920 nM; in the test with H727 cells, pERK it was 4660 nM; with PSN1 cells, pERK, not below 10000 nM. For the same compound, in the test on MKN1 cells, pERK, the IC50 was determined as 1300 nM.
Turning to `CCc1c(F)ccc2cc(O)cc(N3CCc4c(nc(OC[C@@]56CCCN5C[C@H](F)C6)nc4N4C[C@H]5C[C@H](O)C[C@H]5C4)C3)c12` [Example 183, (3aR,5R,6aS)-2-(7-(8-ethyl-7-fluoro-3-hydroxynaphthalen-1-yl)-2-(((2R,7aS)-2-fluorohexahydro-1H-pyrrolizin-7a-yl)methoxy)-5,6,7,8-tetrahydropyrido[3,4-d]pyrimidin-4-yl)octahydrocyclopenta[c]pyrrol-5-ol], the IC50 on KRas^G12R was 23 nM; at KRas^G12D, 150 nM; at KRas^G12V it was 54 nM; in the test with ASPC1 cells, pERK, 1540 nM; in the test with H727 cells, pERK, 2920 nM; in the test on PSN1 cells, pERK, not below 10000 nM. Moreover, the IC50 in the test on MKN1 cells, pERK turned out to be 498 nM.
Turning to `CCc1c(F)ccc2cc(O)cc(N3CCc4c(nc(OC[C@@]56CCCN5C[C@H](F)C6)nc4N4C[C@H]5C[C@@H](O)C[C@H]5C4)C3)c12` [Example 184, (3aR,5S,6aS)-2-(7-(8-ethyl-7-fluoro-3-hydroxynaphthalen-1-yl)-2-(((2R,7aS)-2-fluorohexahydro-1H-pyrrolizin-7a-yl)methoxy)-5,6,7,8-tetrahydropyrido[3,4-d]pyrimidin-4-yl)octahydrocyclopenta[c]pyrrol-5-ol], the IC50 at KRas^G12R is 11 nM; on KRas^G12D it was 23 nM; on KRas^G12V it was 12 nM; in the test with ASPC1 cells, pERK, 770 nM; in the test on H727 cells, pERK, 796 nM; in the test with PSN1 cells, pERK it was not below 10000 nM. The IC50 in the test on MKN1 cells, pERK came to 652 nM.
Consider `CCc1c(F)ccc2cc(O)cc(N3CCc4c(nc(OC[C@@]56CCCN5C[C@H](F)C6)nc4N4C[C@H]5CC[C@@H](O)[C@H]5C4)C3)c12` [Example 185, (3aR,4R,6aS)-2-(7-(8-ethyl-7-fluoro-3-hydroxynaphthalen-1-yl)-2-(((2R,7aS)-2-fluorotetrahydro-1H-pyrrolizin-7a(5H)-yl)methoxy)-5,6,7,8-tetrahydropyrido[3,4-d]pyrimidin-4-yl)octahydrocyclopenta[c]pyrrol-4-ol], for which the IC50 was 46 nM on KRas^G12R; 143 nM on KRas^G12D; 52 nM on KRas^G12V; 5120 nM in the test with ASPC1 cells, pERK; 3720 nM with H727 cells, pERK; not below 10000 nM in the test with PSN1 cells, pERK. In addition, in the test with MKN1 cells, pERK, the IC50 is 1540 nM.

Source of the values: patent publication US12421253B2 (Mirati Therapeutics, Inc., priority 2020, dated 2025).
